Assay results reported in ChEMBL document CHEMBL3885881, “DrugMatrix”.
Where “and” joins values, the source holds several entries; their conditions need not be identical. Equal entries are not always repeated.

Species on record: Rattus norvegicus
Assay: DrugMatrix - Regimen: Daily Repeat
Format: toxicity, organism-based, Sprague-Dawley
Set-up: regimen Daily Repeat, gender Male, age 6-8 weeks
Conditions: in vivo, iv, 0 mg/kg, dose level Control; for ALANINE AMINOTRANSFERASE / ALBUMIN / ALKALINE PHOSPHATASE / ASPARTATE AMINOTRANSFERASE / BLOOD UREA NITROGEN / CARBON DIOXIDE / CHLORIDE / CHOLESTEROL / CREATINE PHOSPHOKINASE / CREATININE / GLUCOSE / LACTATE DEHYDROGENASE / LIPASE / PHOSPHORUS / POTASSIUM / SODIUM / TOTAL BILIRUBIN / TOTAL PROTEIN / URIC ACID: tissue Plasma
[1] = 72 h, tissue Blood, time 3 day, vehicle 100 % SALINE
[2] = 72 h, time 3 day, vehicle 100 % SALINE
[3] = 120 h, tissue Blood, time 5 day, vehicle 10 % DMSO/SALINE
[4] = 120 h, tissue Blood, time 5 day, vehicle 100 % SALINE
[5] = 120 h, time 5 day, vehicle 10 % DMSO/SALINE

In the case of `CC(=O)[C@]1(O)Cc2c(O)c3c(c(O)c2[C@@H](O[C@H]2C[C@H](N)[C@H](O)[C@H](C)O2)C1)C(=O)c1ccccc1C3=O` [IDARUBICIN], the “ABSOLUTE BASOPHIL” value [1] is reported as 0 CELLS/uL, the “ABSOLUTE EOSINOPHIL” value [1] is reported as 247.67 CELLS/uL and the “ABSOLUTE LYMPHOCYTE” value [1] is reported as 13190.83 CELLS/uL. For the same compound, the “ABSOLUTE MONOCYTE” value [1] was 307.67 CELLS/uL, the “ABSOLUTE SEGMENTED NEUTROPHIL” value [1] was 1220.5 CELLS/uL and the BASOPHIL [1] was 0%. For the same compound, the EOSINOPHIL [1] was 1.67%, the “ERYTHROCYTE COUNT” value [1] was 5.47 x10E6/uL and the HEMATOCRIT [1] was 33.98%. For the same compound, the HEMOGLOBIN [1] was 12.65 G/DL, the “LEUKOCYTE COUNT” value [1] was 14.97 x10E3/uL and the LYMPHOCYTE [1] was 88.17%. The “MEAN CORPUSCULAR HEMOGLOBIN” value [1] was 23.17 pg, the “MEAN CORPUSCULAR HEMOGLOBIN CONCENTRATION” value [1] was 37.23 G/DL and the “MEAN CORPUSCULAR VOLUME” value [1] was 62.25 fL. For the same compound, the MONOCYTE [1] was 2%, the NEUTROPHIL [1] was 8.17% and the “NUCLEATED RED BLOOD CELLS” value [1] was 0 /100WBC. For the same compound, the “PLATELET COUNT” value [1] was 1307.17 x10E3/uL, the “ALANINE AMINOTRANSFERASE” value [2] was 39.67 u/L and the ALBUMIN [2] was 4.08 G/DL. For the same compound, the “ALKALINE PHOSPHATASE” value [2] was 383.17 u/L, the “ASPARTATE AMINOTRANSFERASE” value [2] was 88.83 u/L and the “BLOOD UREA NITROGEN” value [2] was 18.5 mg/dL. The “CARBON DIOXIDE” value [2] was 27.5 mmol/L, the CHLORIDE [2] was 103 MEQ/L and the CHOLESTEROL [2] was 67.33 mg/dL. The “CREATINE PHOSPHOKINASE” value [2] was 414.67 u/L, the CREATININE [2] was 0.19 mg/dL and the GLUCOSE [2] was 149.33 mg/dL. For the same compound, the “LACTATE DEHYDROGENASE” value [2] was 536.83 u/L, the LIPASE [2] was 8.83 u/L and the PHOSPHORUS [2] was 11.13 mg/dL. The POTASSIUM [2] was 6.23 MEQ/L, the SODIUM [2] was 144.42 MEQ/L and the “TOTAL BILIRUBIN” value [2] was 0.18 mg/dL. The “TOTAL PROTEIN” value [2] was 5.57 G/DL, the “URIC ACID” value [2] was 1.23 mg/dL and the BASOPHIL [3] was 0.28%. The EOSINOPHIL [3] was 0.55%, the “ERYTHROCYTE COUNT” value [3] was 7.09 x10E6/uL and the HEMATOCRIT [3] was 45.85%. For the same compound, the HEMOGLOBIN [3] was 14.93 G/DL, the “LEUKOCYTE COUNT” value [3] was 7.4 x10E3/uL and the LYMPHOCYTE [3] was 84.22%. For the same compound, the “MEAN CORPUSCULAR HEMOGLOBIN” value [3] was 21.05 pg, the “MEAN CORPUSCULAR HEMOGLOBIN CONCENTRATION” value [3] was 32.5 G/DL and the “MEAN CORPUSCULAR VOLUME” value [3] was 64.72 fL. For the same compound, the MONOCYTE [3] was 1.4%, the NEUTROPHIL [3] was 12.45% and the “PLATELET COUNT” value [3] was 1476.75 x10E3/uL. The “ABSOLUTE SEGMENTED NEUTROPHIL” value [4] was 1104.67 CELLS/uL, the BASOPHIL [4] was 1.05% and 0% and the EOSINOPHIL [4] was 0.23% and 1%. For the same compound, the “ERYTHROCYTE COUNT” value [4] was 6.68 x10E6/uL and 5.73 x10E6/uL, the HEMATOCRIT [4] was 42.27% and 36.85% and the HEMOGLOBIN [4] was 13 G/DL and 13.67 G/DL. The “LEUKOCYTE COUNT” value [4] was 19.36 x10E3/uL and 15.13 x10E3/uL, the LYMPHOCYTE [4] was 62.82% and 89.5% and the “MEAN CORPUSCULAR HEMOGLOBIN” value [4] was 19.43 pg and 23.87 pg. The “MEAN CORPUSCULAR HEMOGLOBIN CONCENTRATION” value [4] was 30.68 G/DL and 37.1 G/DL, the “MEAN CORPUSCULAR VOLUME” value [4] was 63.25 fL and 64.33 fL and the MONOCYTE [4] was 3.45% and 2.33%. For the same compound, the “NUCLEATED RED BLOOD CELLS” value [4] was 0.17 /100WBC, the “PLATELET COUNT” value [4] was 1275.5 x10E3/uL and 1266 x10E3/uL and the “ALANINE AMINOTRANSFERASE” value [5] was 21.25 u/L. For the same compound, the ALBUMIN [5] was 4.28 G/DL, the “ALKALINE PHOSPHATASE” value [5] was 337.5 u/L and the “ASPARTATE AMINOTRANSFERASE” value [5] was 87.25 u/L. The “BLOOD UREA NITROGEN” value [5] was 13 mg/dL, the “CARBON DIOXIDE” value [5] was 27 mmol/L and the CHLORIDE [5] was 106.75 MEQ/L. The CHOLESTEROL [5] was 54.5 mg/dL, the “CREATINE PHOSPHOKINASE” value [5] was 424.75 u/L and the CREATININE [5] was 0.47 mg/dL. The GLUCOSE [5] was 135.75 mg/dL, the “LACTATE DEHYDROGENASE” value [5] was 200.25 u/L and the LIPASE [5] was 9 u/L. The PHOSPHORUS [5] was 11.62 mg/dL, the POTASSIUM [5] was 5.58 MEQ/L and the SODIUM [5] was 150.5 MEQ/L. For the same compound, the “TOTAL BILIRUBIN” value [5] was 0.25 mg/dL, the “TOTAL PROTEIN” value [5] was 6.33 G/DL and the “URIC ACID” value [5] was 1.75 mg/dL. For the same compound, the “ALANINE AMINOTRANSFERASE” value (120 h, time 5 day, vehicle 100 % SALINE) was 62.75 u/L and 49.17 u/L.
